From patent US10092493B2, “Composition of skin external application for anti-aging” (AMOREPACIFIC CORPORATION, priority 2005, dated 2018)

Legend:
Assay type in all cases: cell-based
[1] = system: Tumor Necrosis Factor alpha (TNF-α); assay: Inhibition of TNF-α biosynthesis after UV irradiation (ELISA); details: human keratinocytes, UV-B 30 mJ/cm^2, 10 μM (10 ppm of extract), 6 to 24 hours; UV control = 100
Experimental: Human keratinocytes were cultured in a 12-well plate type incubator at a concentration of 10^4. The plate was irradiated by UV-B at 30 mJ/cm^2. The media were exchanged with new medium containing 10 μM of each test substance (10 ppm of extract). After 6 to 24 hours of cultivation, the cells were harvested and subjected to ELISA (Pharmingen 555212) to determine the amount of produced tumor necrosis factor α (TNF-α). As the positive control, Wy-14,643 was used.

[2] = biological target: T1, PPAR-α (Peroxisome Proliferator Activated Receptor-alpha) (Homo sapiens, UniProt Q07869); assay: Activation of PPAR-α, luciferase reporter in CV-1 cells; details: 24 hours, negative control and non-treated group = 1.0
T1 construct: expressed in transfected cells; host or cells: CV-1 monkey kidney epithelial cells (ATCC CCL 70)
T1 sequence (Q07869 1-468): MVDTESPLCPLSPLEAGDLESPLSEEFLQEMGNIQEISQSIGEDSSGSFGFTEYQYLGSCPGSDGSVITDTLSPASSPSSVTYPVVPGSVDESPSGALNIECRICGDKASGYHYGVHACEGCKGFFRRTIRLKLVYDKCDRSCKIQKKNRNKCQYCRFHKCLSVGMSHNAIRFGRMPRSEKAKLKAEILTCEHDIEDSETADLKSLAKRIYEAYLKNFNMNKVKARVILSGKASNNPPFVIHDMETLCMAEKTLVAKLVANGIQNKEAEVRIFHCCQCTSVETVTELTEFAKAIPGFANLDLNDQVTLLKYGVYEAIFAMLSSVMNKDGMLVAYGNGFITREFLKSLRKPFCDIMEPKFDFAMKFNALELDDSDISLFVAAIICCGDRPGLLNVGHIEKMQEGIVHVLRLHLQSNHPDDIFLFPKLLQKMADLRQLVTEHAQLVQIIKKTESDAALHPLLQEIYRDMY
Experimental: Monkey kidney epithelial cell line CV-1 (ATCC CCL 70) was subcultured in a DMEM medium containing 10% fetal bovine serum treated with charcol/dextran, which was a phenol red-free medium to remove the effect by estrogen of phenol red.
CV-1 cells were distributed in a 24-well plate type incubator at a concentration of 5×10^4. After 24 hours cultivation, the 3 different plasmids were transient transfected. After 24 hours cultivation, the plate was washed with 1×PBS (Phosphate Buffered Saline) and treated with ligand candidates at various concentrations. After 24 hours cultivation, the plate was washed with 1×PBS and the cells were lyzed with 1×PLB (Passive Lysis Buffer) and measured for luciferase activity using Dual-Luciferase® Reporter Assay System kit.

[3] = system: Type I Collagenase (MMP-1); assay: Inhibition of type I collagenase (MMP-1) biosynthesis after UV-A irradiation, test substances (ELISA); details: new born human fibroblasts, UV-A 15 J/cm^2, 10 μM or 10 ppm, UV negative control = 100; for Type I collagenase biosynthesis (%), UV-A + TNF-α treated group: plus TNF-α 10 ng/ml
Experimental: To describe the experiment method in detail, human fibroblasts isolated from the skin of a new born baby were cultured in a 48-well plate type incubator at a concentration of 10^4. After 24 hours, the plate was irradiated by UV-A at 15 J/cm^2. […] At the second day of cultivation, the supernatants were harvested and subjected to ELISA (AP biotech RPN2610) to determine the amount of produced type I collagenase. As the positive control, Wy-14,643 and retinoic acid (RA) were used.

Compound | TNF-α biosynthesis (%) [1] [%] | PPAR-α activity ([2]; 10 μM) | PPAR-α activity ([2]; 100 μM) | Type I collagenase biosynthesis (%), UV-A + TNF-α treated group [3] [%] | Type I collagenase biosynthesis (%), UV-A irradiated group [3] [%] | PPAR-α activity ([2]; 0.1 μM) | PPAR-α activity ([2]; 1 μM)
Oc1cc(O)c2c(c1)O[C@H](c1ccc(O)c(O)c1)[C@@H](O)C2 [(+) C, (+)catechin] | 40 | 1.5 | 1.4 | 86 | 45 | – | –
Cn1c(=O)c2c(ncn2C)n(C)c1=O [Caffeine, reference compound] | 39 | 1.3 | 1.6 | 91 | 58 | – | –
Oc1cc(O)c2c(c1)O[C@@H](c1ccc(O)c(O)c1)[C@@H](O)C2 [(+) EC, (+)epicatechin] | – | 1.3 | 1.2 | – | – | – | –
Cn1c(=O)c2[nH]cnc2n(C)c1=O [Theophylline, reference compound] | 36 | 1.4 | 1.7 | 92 | 40 | – | –
Oc1cc(O)c2c(c1)O[C@H](c1cc(O)c(O)c(O)c1)[C@H](O)C2 [(−) EGC, epigallocatechin] | – | 1.3 | 1.0 | – | – | – | –
O=c1c(O)c(-c2ccc(O)c(O)c2)oc2cc(O)cc(O)c12 [Quercetin, quercetin] | 27 | 1.7 | 2.3 | 91 | 35 | – | –
Oc1cc(O)c2c(c1)OC(c1ccc(O)c(O)c1)C(O)C2 (single isomer, unassigned; (-)) [(−) C, (−)catechin] | – | 1.4 | 1.2 | – | – | – | –
O=C(O)[C@]1(O)C[C@@H](O)[C@@H](O)[C@H](O)C1 [Quinic acid] | 35 | 1.3 | 1.7 | 98 | 75 | – | –
Cn1cnc2c1c(=O)[nH]c(=O)n2C [Theobromine] | 25 | 2.2 | 4.5 | 90 | 32 | – | –
CC1=C(/C=C/C(C)=C/C=C/C(C)=C/C(=O)O)C(C)(C)CCC1 [RA, retinoic acid, reference compound] | – | – | – | 86 | 48 | – | –
Cc1cccc(Nc2cc(Cl)nc(SCC(=O)O)n2)c1C [Wy14643, Wy-14,643, reference compound] | 30 | 3.8 | – | 92 | 60 | 1.5 | 2.6
Oc1cc(O)c2c(c1)O[C@H](c1ccc(O)c(O)c1)[C@H](O)C2 [(−) EC, (−)epicatechin] | – | 1.2 | 1.2 | – | – | – | –
O=C(O)c1cc(O)c(O)c(O)c1 [Gallic acid] | 36 | 1.3 | 1.7 | 89 | 52 | – | –
Oc1cc(O)c2c(c1)O[C@H](c1cc(O)c(O)c(O)c1)[C@@H](O)C2 [(−) GC, gallocatechin] | – | 1.1 | 1.0 | – | – | – | –
O=c1c(O)c(-c2ccc(O)cc2)oc2cc(O)cc(O)c12 [Kaempferol, kaempferol] | 41 | 1.7 | 1.4 | 94 | 48 | – | –
